The target in assay [1] is T1, anthrax lethal factor (LF) protease (Bacillus anthracis, UniProt P15917). The experiment in a line: biochemical. Type of assay: biochemical.
A further assay addresses furin (Homo sapiens, UniProt P09958). The experiment in a line: Furin inhibition, fluorogenic substrate cleavage assay. Type of assay: biochemical.
Assay [2] addresses botulinum neurotoxin/A (BoNT/A) (Clostridium botulinum, UniProt P0DPI1). The assay is described as follows: biochemical. The format is biochemical.
Another assay has as its target MMP-9 (Homo sapiens, UniProt P14780). The assay is described as follows: biochemical.
Assay [3] addresses T1, anthrax lethal factor (LF) protease. The format is biochemical.
For the next assay, the target named is trypsin (Homo sapiens, UniProt P07477). The assay is described as follows: biochemical.
Another assay concerns the target cathepsin B (Homo sapiens, UniProt P07858). The assay is described as follows: biochemical.
The next assay addresses cathepsin D (Homo sapiens, UniProt P07339). The experiment in a line: biochemical.

Each structure is given as a SMILES string. Counter-ions that a name gives are not always drawn.

T1 sequence (P15917 34-809 limits assumed): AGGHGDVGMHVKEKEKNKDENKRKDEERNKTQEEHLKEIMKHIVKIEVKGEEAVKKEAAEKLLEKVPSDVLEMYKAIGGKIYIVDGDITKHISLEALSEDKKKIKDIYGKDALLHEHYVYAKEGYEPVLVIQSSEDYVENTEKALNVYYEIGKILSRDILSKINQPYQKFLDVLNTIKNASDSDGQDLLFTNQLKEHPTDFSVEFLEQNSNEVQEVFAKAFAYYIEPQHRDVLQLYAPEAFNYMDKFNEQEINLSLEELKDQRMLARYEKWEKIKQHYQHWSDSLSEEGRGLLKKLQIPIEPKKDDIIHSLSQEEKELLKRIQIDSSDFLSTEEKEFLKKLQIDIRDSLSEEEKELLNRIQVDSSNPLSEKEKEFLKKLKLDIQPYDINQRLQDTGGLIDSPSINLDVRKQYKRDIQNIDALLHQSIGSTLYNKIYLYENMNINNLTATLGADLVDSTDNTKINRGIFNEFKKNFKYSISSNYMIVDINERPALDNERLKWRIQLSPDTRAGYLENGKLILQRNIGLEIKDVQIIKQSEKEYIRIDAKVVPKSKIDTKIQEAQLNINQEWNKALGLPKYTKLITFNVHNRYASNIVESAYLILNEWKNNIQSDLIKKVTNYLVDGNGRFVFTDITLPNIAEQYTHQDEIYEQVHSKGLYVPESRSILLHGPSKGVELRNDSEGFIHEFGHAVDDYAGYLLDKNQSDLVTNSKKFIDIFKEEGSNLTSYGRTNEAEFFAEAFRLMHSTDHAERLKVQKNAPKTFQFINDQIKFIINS
Chain of MMP-9 (P14780 94-707, species assumed): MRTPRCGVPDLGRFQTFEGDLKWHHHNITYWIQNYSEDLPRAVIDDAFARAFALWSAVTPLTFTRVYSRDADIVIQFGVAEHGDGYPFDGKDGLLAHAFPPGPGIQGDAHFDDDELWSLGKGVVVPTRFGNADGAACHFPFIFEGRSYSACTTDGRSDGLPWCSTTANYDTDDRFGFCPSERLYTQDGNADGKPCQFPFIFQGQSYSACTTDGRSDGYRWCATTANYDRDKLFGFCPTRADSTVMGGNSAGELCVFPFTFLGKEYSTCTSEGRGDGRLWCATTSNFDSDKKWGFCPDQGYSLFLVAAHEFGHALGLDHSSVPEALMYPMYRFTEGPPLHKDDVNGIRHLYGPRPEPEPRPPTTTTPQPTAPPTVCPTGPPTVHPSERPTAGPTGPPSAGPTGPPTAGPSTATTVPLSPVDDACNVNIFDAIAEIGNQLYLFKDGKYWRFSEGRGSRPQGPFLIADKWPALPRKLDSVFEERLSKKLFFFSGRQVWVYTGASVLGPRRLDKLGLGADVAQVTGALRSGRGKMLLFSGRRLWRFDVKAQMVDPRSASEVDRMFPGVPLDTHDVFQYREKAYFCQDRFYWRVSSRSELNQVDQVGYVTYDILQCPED
Chain of botulinum neurotoxin/A (BoNT/A) (P0DPI1 whole entry, looked up): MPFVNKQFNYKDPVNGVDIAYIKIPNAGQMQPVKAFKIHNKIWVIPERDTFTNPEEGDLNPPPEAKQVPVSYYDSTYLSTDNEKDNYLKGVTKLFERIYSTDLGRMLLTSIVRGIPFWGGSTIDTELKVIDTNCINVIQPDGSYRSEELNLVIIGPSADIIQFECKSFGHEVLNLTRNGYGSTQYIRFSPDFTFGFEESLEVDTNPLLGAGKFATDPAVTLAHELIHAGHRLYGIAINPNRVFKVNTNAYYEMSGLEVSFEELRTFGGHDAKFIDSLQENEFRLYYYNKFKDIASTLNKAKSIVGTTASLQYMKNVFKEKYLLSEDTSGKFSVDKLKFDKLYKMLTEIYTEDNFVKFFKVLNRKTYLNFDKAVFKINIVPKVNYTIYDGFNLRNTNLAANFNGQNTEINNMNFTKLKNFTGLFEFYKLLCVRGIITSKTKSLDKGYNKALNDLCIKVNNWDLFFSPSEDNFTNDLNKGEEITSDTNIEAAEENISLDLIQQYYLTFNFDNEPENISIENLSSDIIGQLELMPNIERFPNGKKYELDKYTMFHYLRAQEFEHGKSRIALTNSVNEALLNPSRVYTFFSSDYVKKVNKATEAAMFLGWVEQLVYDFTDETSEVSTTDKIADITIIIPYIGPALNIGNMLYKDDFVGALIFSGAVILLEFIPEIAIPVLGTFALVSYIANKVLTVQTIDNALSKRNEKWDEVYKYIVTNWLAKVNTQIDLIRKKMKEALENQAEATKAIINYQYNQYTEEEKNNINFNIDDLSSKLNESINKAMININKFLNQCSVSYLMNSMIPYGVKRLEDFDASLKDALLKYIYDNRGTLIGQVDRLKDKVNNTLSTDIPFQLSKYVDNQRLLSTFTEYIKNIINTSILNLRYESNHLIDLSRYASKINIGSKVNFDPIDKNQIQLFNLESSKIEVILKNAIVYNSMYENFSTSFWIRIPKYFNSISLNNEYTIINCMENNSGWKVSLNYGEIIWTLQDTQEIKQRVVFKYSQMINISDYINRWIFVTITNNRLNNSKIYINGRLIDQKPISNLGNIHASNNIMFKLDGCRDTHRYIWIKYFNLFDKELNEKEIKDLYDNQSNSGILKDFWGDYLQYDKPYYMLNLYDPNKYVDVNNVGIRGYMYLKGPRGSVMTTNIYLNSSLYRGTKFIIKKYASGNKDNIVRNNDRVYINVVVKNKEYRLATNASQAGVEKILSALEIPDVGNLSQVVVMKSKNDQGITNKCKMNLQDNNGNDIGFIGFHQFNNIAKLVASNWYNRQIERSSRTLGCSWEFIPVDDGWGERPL
Chain of furin (P09958 108-794): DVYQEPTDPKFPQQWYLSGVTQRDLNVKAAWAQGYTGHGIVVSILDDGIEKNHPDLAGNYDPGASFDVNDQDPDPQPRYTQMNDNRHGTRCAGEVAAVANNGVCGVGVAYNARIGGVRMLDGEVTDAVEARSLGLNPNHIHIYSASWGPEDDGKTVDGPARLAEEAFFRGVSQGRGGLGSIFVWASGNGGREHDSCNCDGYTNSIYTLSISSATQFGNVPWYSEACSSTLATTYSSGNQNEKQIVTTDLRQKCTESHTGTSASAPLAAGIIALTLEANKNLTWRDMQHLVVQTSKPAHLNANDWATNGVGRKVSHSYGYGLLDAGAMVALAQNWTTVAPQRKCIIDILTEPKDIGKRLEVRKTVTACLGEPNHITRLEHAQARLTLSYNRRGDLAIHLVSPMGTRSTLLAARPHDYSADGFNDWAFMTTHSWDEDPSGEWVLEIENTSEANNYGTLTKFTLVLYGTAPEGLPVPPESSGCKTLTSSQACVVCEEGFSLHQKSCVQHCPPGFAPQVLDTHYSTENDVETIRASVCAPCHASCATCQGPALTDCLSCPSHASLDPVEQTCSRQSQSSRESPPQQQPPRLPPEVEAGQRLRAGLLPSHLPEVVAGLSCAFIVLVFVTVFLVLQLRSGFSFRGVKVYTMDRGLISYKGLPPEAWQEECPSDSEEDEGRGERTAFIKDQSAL
Chain of cathepsin D (P07339 65-412, species assumed): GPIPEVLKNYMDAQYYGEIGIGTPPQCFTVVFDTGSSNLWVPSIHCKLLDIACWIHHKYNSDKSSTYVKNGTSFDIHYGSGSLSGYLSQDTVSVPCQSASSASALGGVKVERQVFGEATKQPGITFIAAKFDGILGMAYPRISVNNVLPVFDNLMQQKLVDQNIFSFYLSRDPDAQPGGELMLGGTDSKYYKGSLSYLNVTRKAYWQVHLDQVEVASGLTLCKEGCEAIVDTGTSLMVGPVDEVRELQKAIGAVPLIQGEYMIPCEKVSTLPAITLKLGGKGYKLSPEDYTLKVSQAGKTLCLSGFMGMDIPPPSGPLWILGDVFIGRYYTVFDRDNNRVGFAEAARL

What is called Ki is a measure of affinity in units of concentration, obtained from inhibition or displacement. For the compound `CC(=O)N[C@@H](CCCNC(=N)N)C(=O)N[C@@H](CCCNC(=N)N)C(=O)N[C@@H](CCCNC(=N)N)C(=O)N[C@@H](CCCNC(=N)N)C(=O)N[C@@H](CCCNC(=N)N)C(=O)N[C@@H](CCCNC(=N)N)C(N)=O` [Ac-RRRRRR-NH2], the Ki in assay [1] worked out at 0.12 µM.

Consider `CC(=O)N[C@@H](CCCNC(=N)N)C(=O)N[C@@H](CCCNC(=N)N)C(=O)N[C@@H](CCCNC(=N)N)C(=O)N[C@@H](CCCNC(=N)N)C(=O)N[C@@H](CCCNC(=N)N)C(=O)N[C@@H](CCCNC(=N)N)C(=O)O` [Ac-RRRRRR-OH], for which the figures for the Ki (in assay [1]; on furin) were 0.29 ± 0.04 µM and 0.05 µM, respectively.

The term IC50 denotes the concentration at which inhibition is half-maximal. The low end stands for inhibition by little substance, the high end for a need for much substance. Regarding `NCC[C@H](O)C(=O)N[C@@H]1C[C@H](N)[C@@H](O[C@H]2O[C@H](CN)[C@@H](O)[C@H](O)[C@H]2O)[C@H](O)[C@H]1O[C@H]1O[C@H](CO)[C@@H](O)[C@H](N)[C@H]1O` [Amikacin], the Ki in assay [1] was 23.3 µM; at MMP-9, greater than 300 µM. The compound further came in with an IC50 in assay [2] greater than 300 µM.

Consider `CN[C@@H]1[C@@H](O[C@H]2O[C@H](CO)[C@@H](N)[C@H](O)[C@H]2O)OC2C[C@@H](N)[C@@H](O[C@H]3[C@H](O)[C@@H](O)[C@H](N)C[C@@H]3N)OC2[C@@H]1O` (stereo partly drawn) [Apramycin], for which the Ki in assay [1] was 111 µM; at MMP-9, greater than 300 µM. The compound also registered an IC50 in assay [2] greater than 300 µM.

For `CNC(=O)[C@H](Cc1c[nH]c2ccccc12)NC(=O)[C@@H](CC(=O)NO)CC(C)C` [GM 6001], affinity in assay [1] was put at a Ki of 7.2 ± 1.76 µM. The same compound registered an IC50 in assay [2] greater than 300 µM.

With `N=C(N)NCCC[C@@H](N)C(=O)N[C@H](CCCNC(=N)N)C(=O)N[C@H](CCCNC(=N)N)C(=O)N[C@H](CCCNC(=N)N)C(=O)N[C@H](CCCNC(=N)N)C(=O)N[C@H](CCCNC(=N)N)C(N)=O` [H-(D-Arg)-(D-Arg)-(D-Arg)-(D-Arg)-(D-Arg)-(D-Arg)-NH2], the results for the Ki (in assay [1]; on furin) were 0.04 ± 0.02 µM and 0.06 µM, respectively.

`NC(N)=NCCC[C@H](NC(=O)[C@H](CCCN=C(N)N)NC(=O)[C@H](CCCN=C(N)N)NC(=O)[C@H](CCCN=C(N)N)NC(=O)[C@H](CCCN=C(N)N)NC(=O)[C@@H](N)CCCN=C(N)N)C(=O)O` [H-RRRRRR-OH]: the Ki was 0.24 µM in assay [1] and 0.06 µM at furin.

`NC[C@H]1O[C@H](O[C@H]2[C@H](O)[C@@H](O)[C@H](N)C[C@@H]2N)[C@H](N)[C@@H](O)[C@@H]1O` [Neamine (free base), Neamine]: the figures for the Ki (in assay [1]; on MMP-9) were 31.1 ± 5.6 µM and greater than 300 µM, respectively. The IC50 in assay [2] was 175 µM. For the same compound, in assay [3], the “effect of DNA or RNA on concentration-dependent LF inhibitory activity” value is “unaffected by DNA or RNA”.

For `N=C(N)NC[C@@H]1O[C@H](O[C@H]2[C@@H](O)[C@H](O[C@@H]3[C@@H](O)[C@H](NC(=N)N)C[C@H](NC(=N)N)[C@H]3O[C@H]3O[C@H](CNC(=N)N)[C@@H](O)[C@H](O)[C@H]3NC(=N)N)O[C@@H]2CO)[C@H](NC(=N)N)[C@@H](O)[C@@H]1O` [Neomycin B hexaguanyl hexatrifluoroacetate salt], the values for the Ki (in assay [1]; at MMP-9; on furin) were 0.03 µM, greater than 170 µM and 1.5 µM, respectively. The compound also registered an IC50 in assay [2] of 14 µM.

In the case of `NC[C@@H]1O[C@H](O[C@H]2[C@@H](O)[C@H](O[C@@H]3[C@@H](O)[C@H](N)C[C@H](N)[C@H]3O[C@H]3O[C@H](CN)[C@@H](O)[C@H](O)[C@H]3N)O[C@@H]2CO)[C@H](N)[C@@H](O)[C@@H]1O` [Neomycin B tris-sulfate], the Ki was 0.71 ± 0.04 µM in assay [1] and greater than 300 µM at MMP-9. The midpoint of inhibition in assay [2], the IC50, lay at 92.5 µM. Besides, the “right shift in potency as LF inhibitor caused by DNA” value in assay [3] is on record as ~ 10 fold.

With `NCCCCN` [Putrescine (1,4-diaminobutane), 1,4-diaminobutane], the Ki (in assay [1]; at MMP-9) was greater than 300 µM each time. In addition, the IC50 in assay [2] was greater than 300 µM.

Take `CN[C@@H]1[C@@H](O)[C@@H](O[C@@H]2[C@@H](O)[C@H](O[C@H]3OC(CN)=CC[C@H]3N)[C@@H](N)C[C@H]2N)OC[C@]1(C)O` [Sisomicin Sulfate]: the Ki in assay [1] is 1.8 µM; at MMP-9, greater than 300 µM. This compound also came in with an IC50 in assay [2] greater than 300 µM.

For the compound `NCCCCNCCCN` [Spermidine], in assay [1], the Ki was greater than 100 µM and the “LF inhibition (in words)” value was “weaker than spermine but were still concentration-dependent inhibitors”. In assay [2], this compound registered an IC50 of 76 µM.

For `NCCCNCCCCNCCCN` [Spermine, diphosphate salt], the figures for the Ki (in assay [1]; in assay [2]; at MMP-9) were 0.9 ± 0.09 µM, 46 ± 6 µM and greater than 300 µM, respectively. Also, the IC50 in assay [2] was 57 µM; against trypsin, greater than 500 µM; against cathepsin B, greater than 500 µM; against cathepsin D, greater than 500 µM. Moreover, the “fold weaker as botulinum protease inhibitor than as anthrax LF inhibitor” value in assay [2] is greater than 40 fold. For the same compound, in assay [3], the “effect of DNA or RNA on concentration-dependent LF inhibitory activity” value was “unaffected by DNA or RNA”.

As to `N=C(N)NC[C@H]1O[C@H](O[C@H]2[C@H](O)[C@@H](O)[C@H](NC(=N)N)C[C@@H]2NC(=N)N)[C@H](NC(=N)N)[C@@H](O)[C@@H]1O` [Tetraguanyl neamine, free base, Tetraguanyl neamine], in assay [1], the affinity corresponds to a Ki of 0.3 µM.

Take `CNC(C)C1CCC(N)C(OC2C(N)CC(N)C(OC3OCC(C)(O)C(NC)C3O)C2O)O1` (stereo not drawn) [gentamicin]: the “LF inhibition (in words)” value in assay [1] is recorded as “inhibited LF enzyme activity”.

As for `NCCC[C@H](N)C(=O)O` [ornithine], the “LF inhibition (in words)” value in assay [1] is on record as “weaker than spermine but were still concentration-dependent inhibitors”.

The record behind these values is article PMC1513218 (BMC Pharmacology, 2006).
